How the values were obtained:
[1] = target: T1, Methionine--tRNA ligase, cytoplasmic (Homo sapiens, UniProt P56192); experiment: Inhibitory activity against human methionyl-tRNA synthetase (hMetRS).
T1 sequence (P56192 whole entry): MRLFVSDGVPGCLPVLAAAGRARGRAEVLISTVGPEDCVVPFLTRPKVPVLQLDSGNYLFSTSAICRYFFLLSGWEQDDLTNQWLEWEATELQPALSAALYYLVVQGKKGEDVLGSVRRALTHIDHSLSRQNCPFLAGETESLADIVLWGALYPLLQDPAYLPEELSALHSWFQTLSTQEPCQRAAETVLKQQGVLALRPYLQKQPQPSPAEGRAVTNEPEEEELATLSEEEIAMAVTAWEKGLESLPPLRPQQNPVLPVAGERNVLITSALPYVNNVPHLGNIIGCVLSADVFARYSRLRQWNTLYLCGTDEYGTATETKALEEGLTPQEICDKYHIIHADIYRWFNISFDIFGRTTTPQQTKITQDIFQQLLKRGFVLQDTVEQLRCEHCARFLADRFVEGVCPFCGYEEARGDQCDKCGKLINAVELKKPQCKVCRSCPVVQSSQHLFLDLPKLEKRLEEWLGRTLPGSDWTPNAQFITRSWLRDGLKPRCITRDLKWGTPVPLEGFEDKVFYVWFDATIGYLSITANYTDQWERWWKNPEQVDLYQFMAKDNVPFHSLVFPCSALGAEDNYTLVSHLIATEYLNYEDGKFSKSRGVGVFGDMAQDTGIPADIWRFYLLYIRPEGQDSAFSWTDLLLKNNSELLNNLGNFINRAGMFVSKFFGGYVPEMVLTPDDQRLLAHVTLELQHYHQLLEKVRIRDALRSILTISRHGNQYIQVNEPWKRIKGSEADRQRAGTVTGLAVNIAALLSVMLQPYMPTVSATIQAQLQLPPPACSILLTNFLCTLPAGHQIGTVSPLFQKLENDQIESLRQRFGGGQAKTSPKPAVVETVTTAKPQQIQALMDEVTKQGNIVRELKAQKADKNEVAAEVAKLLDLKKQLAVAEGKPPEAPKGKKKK

[2] = system: Staphylococcus aureus subsp. aureus MW2; experiment: Selectivity ratio for inhibition of human Methionyl-tRNA synthetase to that of Staphylococcus aureus Methionyl-tRNA synthetase.

IC50 [1] [µM]	Ratio [2]	Compound
33.5	1	O=C(O)c1cc(-c2ccc(-c3ccc(C(F)(F)F)cc3)cc2)n(-c2ccc(Cl)cc2Cl)n1
100	29	O=C(O)Cn1nc(C(=O)O)cc1-c1ccc(-c2ccc(Cl)cc2Cl)cc1
46.4	45	CCn1nc(C(=O)O)cc1-c1ccc(-c2ccc(Cl)cc2Cl)cc1
11.9	2	O=C(O)c1cc(-c2ccc(-c3ccc(Cl)cc3Cl)cc2)n(-c2ccc(Cl)cc2Cl)n1
> 100	> 152	O=C(O)c1cc(-c2ccc(-c3ccc(Cl)cc3Cl)cc2)n(Cc2cccnc2)n1
> 100	> 22	O=C(O)c1cc(-c2ccc(-c3ccc(Cl)cc3Cl)cc2)n(CCO)n1
40.9	1	O=C(O)c1cccc(-c2ccc(-c3cc(C(=O)O)nn3-c3ccc(Cl)cc3Cl)cc2)c1
> 100	> 34	NC(=O)c1cc(-c2ccc(-c3ccc(Cl)cc3Cl)cc2)n(-c2ccccn2)n1
10.6	82	Clc1ccc(-c2ccc(-c3cc(-c4nnn[nH]4)nn3-c3cccnc3)cc2)c(Cl)c1
22.3	8	O=C(O)c1cc(-c2ccc(-c3ccc(Cl)cc3Cl)cc2)nn1Cc1ccccn1
41.3	1	O=C(O)c1cc(-c2ccc(-c3ccc(F)cc3)cc2)n(-c2ccc(Cl)cc2Cl)n1
44.3	1	O=C(O)c1cc(-c2ccc(-c3ccccc3)cc2)n(-c2ccc(Cl)cc2Cl)n1
13.8	106	O=C(NCc1nn[nH]n1)c1cc(-c2ccc(-c3ccc(Cl)cc3Cl)cc2)n(-c2cccnc2)n1
20.9	1	O=C(O)c1cc(-c2ccc(-c3ccc(F)c(Cl)c3)cc2)n(-c2ccc(Cl)cc2Cl)n1
> 100	> 10	COc1ccc(-n2nc(C(=O)O)cc2-c2ccc(-c3ccc(Cl)cc3Cl)cc2)cc1
> 100	> 159	O=C(O)c1cc(-c2ccc(-c3ccc(Cl)cc3Cl)cc2)n(-c2ccccn2)n1
47	157	O=C(O)c1cc(-c2ccc(-c3ccc(Cl)cc3Cl)cc2)n(-c2cccnc2)n1
26.2	52	O=C(O)c1cc(-c2ccc(-c3ccc(Cl)cc3Cl)cc2)n(Cc2ccncc2)n1
